# Results published in patent US12702660B2, “Method for treating cancer with an oral dosage form of an estrogen receptor-alpha inhibitor” (Eisai R&D Management Co., Ltd., priority 2019, dated 2026).
# Columns and labels:
# Format in all cases: in vivo, human
# [1] = tested on: Ki67; test: Pharmacodynamics: Ki67 levels post-treatment; details: across all dose levels post-treatment
# Experimental: (§1) Methods were used to analyze whether H3B-6545 inactivates both wild-type and mutant ERα by targeting cysteine 530 and enforcing a unique antagonist conformation. Methods: Women with locally advanced or metastatic HR+BC are treated (tx) with H3B-6545 drug product administered once daily orally by capsule over a 28 day cycle after progression on at least one hormonal therapy and at least one additional therapy/regimen. Dose escalation uses a 3+3 design with the option to backfill previously cleared doses and allows for intrapatient dose escalation. This example explored the safety, pharmacokinetics and pharmacodynamics of H3B-6545 in women with HR+BC to identify a recommended subsequent dose for testing.
# [2] = tested on: ER target gene expression; test: Pharmacodynamics: ER target gene expression; details: patients, 100 to 450 mg/day
# Experimental: as §1
# [3] = tested on: locally advanced or metastatic ER+HER2−BC; test: Tumor response and progression-free survival, phase 1 dose escalation; details: as of 10 Dec. 2018; 32 patients, 100 to 450 mg/day
compound,measurement,setting,value
"CN(C)C(=O)/C=C/CNCCOc1ccc(/C(=C(/CC(F)(F)F)c2ccccc2)c2ccc3[nH]nc(F)c3c2)cn1 [H3B-6545, (E)-N,N-dimethyl-4-[2-[5-[(Z)-4,4,4-trifluoro-1-(3-fluoro-1H-indazol-5-yl)-2-phenylbut-1-enyl]pyridin-2-yl]oxyethylamino]but-2-enamide]",decrease in Ki67 levels,[1],50%
same,ER target gene expression,[2],inhibited ER target gene expression
same,"Partial responses (PRs), patients",[3],3 patients
same,"Stable disease, % of patients",[3],47%
same,patients who completed at least 6 months of treatment,[3],34%
